Test results published in US20020169193A1, “Alkylphenyliminoimidazolidine derivatives for treating urinary incontinence” (priority 2001, published 2002).

What was measured:
[1] = system: dog's femoral artery / carotid artery in the dog; experiment: Selectivity in the dog: femoral artery versus carotid artery contraction; settings: percentage contraction of femoral artery at 10^−5 M — percentage contraction of carotid artery at 10^−5 M
Protocol: (§1) The efficacy and selectivity of the compounds is determined as follows:
(§2) Maximum contraction in the dog and activity on human urethra are percentages of contraction compared with noradrenaline. Selectivity in the dog is the percentage contraction of the dog's femoral artery at 10^−5 M—percentage contraction of the carotid artery in the dog at 10^−5 M.

the Dog = experiment: Efficacy: maximum contraction in the dog compared with noradrenaline; settings: percentage of contraction compared with noradrenaline
Protocol: as §1, §2

HLM = experiment: Metabolism: decomposition under the effect of HLM; format: in vitro ADME
Protocol: The decomposition under the effect of the enzyme HLM/60 minutes was tested analogously.

Human Urethra = experiment: Efficacy: contraction of human urethra compared with noradrenaline; settings: percentage of contraction compared with noradrenaline
Protocol: as §1, §2

CYP2D6 = CYP2D6 (Homo sapiens, UniProt P10635); experiment: Metabolism: substrate breakdown by enzyme CYP2D6; format: in vitro ADME
Protocol: To determine the metabolism the enzyme CYP2D6 was allowed to act on the test substances. After 30 minutes, a check was made to see how much of the test substance put in had been degraded by the enzyme.

[2] = Bioavailability, oral versus intravenous administration in rats, plasma HPLC; format: in vivo; settings: male fasted rats, oral vs intravenous, pooled plasma; for bioavailability: rat
Protocol: To determine the bioavailability, the test substances were administered orally to a group of 8 male fasted rats. As a control, animals in an identical second group were given the test substances intravenously. At specified times after administration (10 minutes, 30 minutes, 1 hour, 2 hours and 4 hours, and additionally 6 hours in the case of the animals in the oral group) 1 mL blood samples were taken from the animals in both groups. The blood samples taken in each group were mixed together (8 mL). The content of the corresponding test substances in the blood for the appropriate time was determined from the plasma after further working up by HPLC (High Performance Liquid Chromatography) using standard methods and correlated for the two groups.

Chain of CYP2D6 (P10635 whole entry): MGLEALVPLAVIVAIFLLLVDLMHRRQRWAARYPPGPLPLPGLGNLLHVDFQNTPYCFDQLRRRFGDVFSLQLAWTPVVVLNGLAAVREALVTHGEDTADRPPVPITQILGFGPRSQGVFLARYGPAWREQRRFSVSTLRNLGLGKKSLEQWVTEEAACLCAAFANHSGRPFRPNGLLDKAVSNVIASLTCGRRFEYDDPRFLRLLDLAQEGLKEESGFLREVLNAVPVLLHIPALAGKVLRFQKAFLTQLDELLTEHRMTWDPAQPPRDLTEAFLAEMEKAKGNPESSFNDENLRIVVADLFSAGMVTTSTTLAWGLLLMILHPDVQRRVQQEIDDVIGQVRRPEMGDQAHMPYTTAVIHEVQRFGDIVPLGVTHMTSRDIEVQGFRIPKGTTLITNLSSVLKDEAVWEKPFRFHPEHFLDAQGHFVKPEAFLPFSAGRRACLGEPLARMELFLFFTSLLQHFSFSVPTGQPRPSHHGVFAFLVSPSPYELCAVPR

Row | Structure (SMILES) | Selectivity in the Dog [1] | Activity in the Dog (the Dog) [%] | % Substrate Breakdown After 60 Minutes Incubation with HLM (HLM) [%] | Activity on Human Urethra (Human Urethra) [%] | % Substrate Breakdown After 30 Minutes Incubation with CYP2D6 (CYP2D6) [%] | Bioavailability in % [2] [%] | bioavailability [2] [%]
1 | Cc1c(NC2=NCCN2)cccc1C(C)C [Compound 1, 3′-isopropyl-2′-methylphen-1′-yl-2-iminoimidazolidine] | 0.7 | 78 | 13.5 | 11 | 18.2 | – | –
2 | COc1ccc(C(C)(C)C)cc1N=C1NCCN1 [Compound 2, 3′-tert-butyl-6′-methoxyphen-1′-yl-2-iminoimidazolidine] | 0.6 | 71 | 2.7 | 30 | 0.7 | 34 | –
3 | Cc1c(C(C)C)ccc(Cl)c1NC1=NCCN1 [Compound 3, 6′-chloro-3′-isopropyl-2′-methylphen-1′-yl-2-iminoimidazolidine] | 0.7 | 70 | 11.7 | 41 | 6.1 | – | 8
4 | Cc1c(NC2=NCCN2)ccc(Cl)c1C(C)C [Compound 4, 4′-chloro-3′-isopropyl-2′-methylphen-1′-yl-2-iminoimidazolidine] | 0.5 | 59 | 5.5 | – | 7.6 | – | –
5 | Cc1c(C(C)C)ccc(Br)c1NC1=NCCN1 [Compound 5, 6′-bromo-3′-isopropyl-2′-methylphen-1′-yl-2-iminoimidazolidine] | 0.4 | 34 | 7.5 | – | 8.7 | – | –
6 | CC(C)(C)c1ccc(Br)c(N=C2NCCN2)c1 [Compound 6, 6′-bromo-3′-tert-butylphen-1′-yl-2-iminoimidazolidine] | – | 28 | 2.8 | – | 3.0 | – | –
7 | Cc1c(NC2=NCCN2)ccc(Br)c1C(C)C [Compound 7, 4′-bromo-3′-isopropyl-2′-methylphen-1′-yl-2-iminoimidazolidine] | 0.7 | 70 | – | 21 | 5.0 | – | 53
